Source: PubChem BioAssay (NCI)
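Assay format: 96-well plates, 48-hour exposure. The concentration for 50% growth inhibition is given as GI50. TGI denotes the concentration required for complete inhibition of growth.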

Assays:
Experiment in all cases: NCI anticancer screen, dose series, 48 h; in the data active = GI50 below about 0.43 µM; inactive = the rest
[1] = tested on: MOLT-4 leukemia
[2] = tested on: NCI-H23 lung
[3] = tested on: M14 melanoma
[4] = tested on: HCT-116 colon
[5] = tested on: DU-145 prostate
[6] = tested on: SK-OV-3 ovarian
[7] = tested on: SF-268 CNS
[8] = tested on: UACC-257 melanoma
[9] = tested on: OVCAR-5 ovarian
[10] = tested on: OVCAR-8 ovarian
[11] = tested on: A549 NSCLC
[12] = tested on: SK-MEL-2 melanoma
[13] = tested on: HL-60(TB) leukemia
[14] = tested on: RPMI-8226 leukemia
[15] = tested on: HOP-62 NSCLC
[16] = tested on: MCF7 breast
[17] = tested on: HCT-15 colon
[18] = tested on: SK-MEL-28 melanoma
[19] = tested on: 786-0 renal
[20] = tested on: OVCAR-3 ovarian
[21] = tested on: TK-10 renal
[22] = tested on: T-47D breast
[23] = tested on: RXF 393 renal
[24] = tested on: CAKI-1 renal
[25] = tested on: SN12C renal
[26] = tested on: LOX IMVI melanoma
[27] = tested on: UACC-62 melanoma
[28] = tested on: SW-620 colon
[29] = tested on: COLO 205 colon
[30] = tested on: IGROV1 ovarian
[31] = tested on: UO-31 renal
[32] = tested on: SF-539 CNS
[33] = tested on: U251 CNS
[34] = tested on: HT29 colon
[35] = tested on: SK-MEL-5 melanoma
[36] = tested on: NCI-H522 lung
[37] = tested on: NCI-H226 lung
[38] = tested on: SNB-75 CNS
[39] = tested on: ACHN renal
[40] = tested on: OVCAR-4 ovarian
[41] = tested on: NCI-H460 lung
[42] = tested on: K-562 leukemia
[43] = tested on: HCC-2998 colon
[44] = tested on: SF-295 CNS
[45] = tested on: MDA-MB-435
[46] = tested on: SR leukemia
[47] = tested on: MDA-MB-231 breast
[48] = tested on: KM12 colon
[49] = tested on: A498 renal
[50] = tested on: MALME-3M melanoma
[51] = tested on: PC-3 prostate
[52] = tested on: HOP-92 NSCLC
[53] = tested on: EKVX NSCLC
[54] = tested on: HS 578T breast
[55] = tested on: NCI/ADR-RES ovarian
[56] = tested on: BT-549 breast
[57] = tested on: SNB-19 CNS
[58] = tested on: CCRF-CEM leukemia

Oc1c(Br)cc(Br)c2ccc(Cn3cc(-c4ccc(C(F)(F)F)cc4)nn3)nc12
3.79 µM: TGI [21]
4.44 µM: TGI [3]
5.02 µM: TGI [47]
22.6 µM: TGI [43]
16.5 µM: TGI [33]
2.7 µM: TGI [39]
5.76 µM: TGI [1]
4.4 µM: TGI [52]
11.8 µM: TGI [42]
5.86 µM: TGI [46]
1.52 µM: TGI [26]
5.84 µM: TGI [22]
30.8 µM: TGI [15]
3.19 µM: TGI [5] | TGI [8]
71.7 µM: TGI [55]
inactive: GI50 [1] 1.01 µM | GI50 [2] 2.31 µM | GI50 [3] 1.81 µM | GI50 [4] 0.586 µM | GI50 [5] 1.67 µM | GI50 [6] 17.8 µM | GI50 [7] 4.7 µM | GI50 [8] 1.31 µM | GI50 [9] 3.45 µM | GI50 [10] 2.62 µM | GI50 [11] 16.6 µM | GI50 [12] 2.73 µM | GI50 [13] 0.674 µM | GI50 [14] 1.59 µM | GI50 [15] 15.6 µM | GI50 [16] 0.532 µM | GI50 [17] 1.56 µM | GI50 [18] 1.7 µM | GI50 [19] 1.92 µM | GI50 [20] 1.42 µM | GI50 [21] 1.82 µM | GI50 [22] 1.72 µM | GI50 [23] 0.662 µM | GI50 [24] 1.27 µM | GI50 [25] 3.53 µM | GI50 [27] 3.4 µM | GI50 [28] 0.548 µM | GI50 [29] 1.28 µM | GI50 [30] 1.49 µM | GI50 [31] 1.68 µM | GI50 [32] 1.59 µM | GI50 [33] 4.42 µM | GI50 [34] 1.92 µM | GI50 [35] 3.16 µM | GI50 [36] 1.08 µM | GI50 [37] 4.46 µM | GI50 [38] 1.49 µM | GI50 [39] 1.38 µM | GI50 [40] 1.45 µM | GI50 [41] 19 µM | GI50 [43] 8.87 µM | GI50 [44] 17.2 µM | GI50 [45] 1.85 µM | GI50 [46] 0.794 µM | GI50 [47] 2.06 µM | GI50 [48] 8.84 µM | GI50 [49] 3.36 µM | GI50 [50] 1.65 µM | GI50 [51] 2.9 µM | GI50 [52] 1.52 µM | GI50 [53] 7.43 µM | GI50 [54] 3.03 µM | GI50 [55] 21.1 µM | GI50 [56] 2.16 µM | GI50 [57] 11.1 µM
3.01 µM: TGI [32] | TGI [36]
37.3 µM: TGI [41]
4.54 µM: TGI [19]
17.9 µM: TGI [7]
31.2 µM: TGI [44]
4.55 µM: TGI [34]
5.6 µM: TGI [14]
3.46 µM: TGI [17]
3.44 µM: TGI [18]
2.13 µM: TGI [28]
2.36 µM: TGI [16]
2.8 µM: TGI [20]
7.76 µM: TGI [10]
21.4 µM: TGI [48]
2.93 µM: TGI [29]
19.7 µM: TGI [37]
5.98 µM: TGI [56]
10.3 µM: TGI [54]
2.69 µM: TGI [24]
34.3 µM: TGI [11]
8.04 µM: TGI [38]
2.17 µM: TGI [23]
3.06 µM: TGI [13]
11.7 µM: TGI [35]
6.18 µM: TGI [2]
12.9 µM: TGI [9]
13.8 µM: TGI [49]
9.67 µM: TGI [12]
12.4 µM: TGI [51]
2.05 µM: TGI [4]
32.1 µM: TGI [6]
active: GI50 [26] 0.379 µM | GI50 [42] 0.41 µM
3.67 µM: TGI [50]
20.9 µM: TGI [53]
24.5 µM: TGI [57]
4.39 µM: TGI [45]
5.03 µM: TGI [31]
14.4 µM: TGI [25] | TGI [27]
3.11 µM: TGI [40]
3.25 µM: TGI [30]

CC[C@H](C)[C@H](NC(=O)c1ccccn1)C(=O)N(C)[C@H](C[C@@H](OC(C)=O)c1nc(C(=O)N[C@@H](Cc2ccccc2)C[C@H](C)C(=O)OC)cs1)C(C)C
42.5 µM: TGI [35] | TGI [56]
> 100 µM: TGI [2] | TGI [5] | TGI [6] | TGI [7] | TGI [8] | TGI [9] | TGI [10] | TGI [11] | TGI [12] | TGI [14] | TGI [15] | TGI [16] | TGI [17] | TGI [18] | TGI [21] | TGI [22] | TGI [58] | TGI [24] | TGI [25] | TGI [26] | TGI [27] | TGI [28] | TGI [30] | TGI [31] | TGI [33] | TGI [34] | TGI [37] | TGI [39] | TGI [40] | TGI [42] | TGI [43] | TGI [44] | TGI [48] | TGI [50] | TGI [51] | TGI [53] | TGI [55] | TGI [57]
98 µM: TGI [38]
5.64 µM: TGI [45]
40.7 µM: TGI [20]
57 µM: TGI [41]
50.8 µM: TGI [32]
54 µM: TGI [13]
59.7 µM: TGI [19]
38.4 µM: TGI [3]
42 µM: TGI [29]
50.3 µM: TGI [4]
90.2 µM: TGI [1]
38.9 µM: TGI [36]
81 µM: TGI [46]
45.7 µM: TGI [54]
inactive: GI50 [1] 24.7 µM | GI50 [2] 24.6 µM | GI50 [3] 9.25 µM | GI50 [4] 11.2 µM | GI50 [5] 34.7 µM | GI50 [6] 33.4 µM | GI50 [7] 29 µM | GI50 [8] 36.8 µM | GI50 [9] 27.9 µM | GI50 [10] 33.3 µM | GI50 [11] 48.9 µM | GI50 [12] 12.8 µM | GI50 [13] 7.89 µM | GI50 [14] 6.98 µM | GI50 [15] 26.1 µM | GI50 [16] 4.92 µM | GI50 [17] 21.7 µM | GI50 [18] 35.1 µM | GI50 [19] 16.1 µM | GI50 [20] 10.9 µM | GI50 [21] 54.1 µM | GI50 [22] 43 µM | GI50 [58] 21.5 µM | GI50 [23] 7.56 µM | GI50 [24] 30.6 µM | GI50 [25] 30 µM | GI50 [26] 22.3 µM | GI50 [27] 4.56 µM | GI50 [28] 23.1 µM | GI50 [29] 16.8 µM | GI50 [30] 11.6 µM | GI50 [31] 18 µM | GI50 [32] 17.1 µM | GI50 [33] 28.5 µM | GI50 [34] 26.3 µM | GI50 [35] 10.7 µM | GI50 [36] 8.93 µM | GI50 [37] 45 µM | GI50 [38] 5.73 µM | GI50 [39] 27.3 µM | GI50 [40] 31.1 µM | GI50 [41] 18.6 µM | GI50 [42] 17.5 µM | GI50 [43] 19.1 µM | GI50 [44] 21.7 µM | GI50 [45] 2.08 µM | GI50 [46] 3.88 µM | GI50 [47] 15.7 µM | GI50 [48] 8.08 µM | GI50 [50] 15.7 µM | GI50 [51] 23.6 µM | GI50 [52] 6.88 µM | GI50 [53] 35.3 µM | GI50 [54] 12.8 µM | GI50 [55] 25.3 µM | GI50 [56] 11.4 µM | GI50 [57] 33.8 µM
80.9 µM: TGI [52]
60.4 µM: TGI [23]
48.2 µM: TGI [47]
